The test system of assay [1] is Streptococcus. As to the kind of experiment: Group A Streptococcus viability loss, dose response, counter-screen for streptokinase expression inhibitor project, luminescence, BacTiterGlo (AID 1915).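 Further: potency for reduction of bacterial viability or growth.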 It is filed as functional, organism-based. Background: Counterscreens check selectivity or assay interference.
The test system of assay [2] is Streptococcus sp. 'group A'. The experiment in a line: growth inhibition of control SK(-) GAS strain, dose response, counter-screen for streptokinase expression inhibitor project, luminescence, kanamycin, BacTiterGlo, confirmation (AID 1900). Type of assay: functional, organism-based.
For assay [3], the target named is T1, Streptokinase A (Streptococcus pyogenes serotype M1, UniProt P10520).
T1 sequence (P10520 whole entry): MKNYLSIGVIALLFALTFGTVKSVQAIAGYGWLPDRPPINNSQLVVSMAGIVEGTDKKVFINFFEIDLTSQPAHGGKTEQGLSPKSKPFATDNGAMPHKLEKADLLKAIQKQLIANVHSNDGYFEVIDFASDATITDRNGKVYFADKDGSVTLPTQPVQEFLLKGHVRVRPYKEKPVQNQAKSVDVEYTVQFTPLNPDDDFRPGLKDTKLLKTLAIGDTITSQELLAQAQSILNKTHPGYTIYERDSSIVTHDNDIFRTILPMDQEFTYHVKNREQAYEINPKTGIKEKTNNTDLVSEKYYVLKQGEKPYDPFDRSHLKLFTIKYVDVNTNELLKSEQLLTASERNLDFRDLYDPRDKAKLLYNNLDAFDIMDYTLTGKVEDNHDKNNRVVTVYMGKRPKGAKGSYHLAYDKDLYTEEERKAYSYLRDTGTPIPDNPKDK
The experiment in a line: S. pyogenes streptokinase expression inhibitors, potency, dose response, plasminogen activation absorbance, OD405 (AID 1914).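 Further: secreted streptokinase activity via plasminogen activation per viability signal from cell pellet.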 It is filed as functional, Streptococcus pyogenes M1 GAS.

The target of assay [4] is T2, Corticotropin-releasing factor receptor 2/Corticotropin-releasing factor-binding protein (Homo sapiens, UniProt P24387+Q13324).
T2 sequence (Q13324 whole entry): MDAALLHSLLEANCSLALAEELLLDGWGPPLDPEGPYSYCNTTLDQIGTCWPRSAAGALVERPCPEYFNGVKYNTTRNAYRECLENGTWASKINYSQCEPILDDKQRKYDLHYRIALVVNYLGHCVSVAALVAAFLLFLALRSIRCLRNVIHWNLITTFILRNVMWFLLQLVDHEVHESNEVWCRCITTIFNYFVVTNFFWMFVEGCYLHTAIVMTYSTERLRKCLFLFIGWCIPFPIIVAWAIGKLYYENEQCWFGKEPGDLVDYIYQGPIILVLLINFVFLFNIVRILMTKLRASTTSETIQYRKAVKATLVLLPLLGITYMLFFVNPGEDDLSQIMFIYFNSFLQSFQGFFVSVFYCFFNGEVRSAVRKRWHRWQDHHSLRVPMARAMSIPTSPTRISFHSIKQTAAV
T2 sequence (P24387 whole entry): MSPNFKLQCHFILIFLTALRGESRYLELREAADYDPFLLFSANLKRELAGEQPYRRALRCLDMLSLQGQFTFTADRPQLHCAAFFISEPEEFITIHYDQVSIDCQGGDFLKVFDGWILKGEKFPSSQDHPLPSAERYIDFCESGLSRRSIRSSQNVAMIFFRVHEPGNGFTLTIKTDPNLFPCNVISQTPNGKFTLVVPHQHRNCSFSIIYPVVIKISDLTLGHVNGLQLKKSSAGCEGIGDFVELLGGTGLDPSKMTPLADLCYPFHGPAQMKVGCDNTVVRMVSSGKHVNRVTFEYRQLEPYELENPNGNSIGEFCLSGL
The experiment in a line: activators of CRF receptor 2 with binding protein – uHTS hits, confirmation (AID 602473). It is filed as functional. The note with it: read-out: EC50_Mean.

A short description of assay [5]: cytotoxicity toward NIH3T3 fibroblasts, dose response, counter-screen, cell-based, ATP luminescence, mouse fibroblasts (AID 2010).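 Further: cells exposed to compound for about 90 hours before reading.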 Type of assay: functional.
The nature of assay [6]: inhibitors of intracellular T. cruzi replication, confirmation, NIH3T3 host cells, beta-gal luminescence (AID 2044).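 Further: intracellular parasites grown in NIH/3T3 mouse fibroblasts as host cells; luminescent beta-galactosidase reporter signal from transgenic T. cruzi replicating inside host cells; inhibitors lower the luminescence signal.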 Type of assay: functional, cell-based.
The target of assay [7] is T3, Heat shock factor protein 1 (Mus musculus, UniProt P38532).
T3 sequence (P38532 whole entry): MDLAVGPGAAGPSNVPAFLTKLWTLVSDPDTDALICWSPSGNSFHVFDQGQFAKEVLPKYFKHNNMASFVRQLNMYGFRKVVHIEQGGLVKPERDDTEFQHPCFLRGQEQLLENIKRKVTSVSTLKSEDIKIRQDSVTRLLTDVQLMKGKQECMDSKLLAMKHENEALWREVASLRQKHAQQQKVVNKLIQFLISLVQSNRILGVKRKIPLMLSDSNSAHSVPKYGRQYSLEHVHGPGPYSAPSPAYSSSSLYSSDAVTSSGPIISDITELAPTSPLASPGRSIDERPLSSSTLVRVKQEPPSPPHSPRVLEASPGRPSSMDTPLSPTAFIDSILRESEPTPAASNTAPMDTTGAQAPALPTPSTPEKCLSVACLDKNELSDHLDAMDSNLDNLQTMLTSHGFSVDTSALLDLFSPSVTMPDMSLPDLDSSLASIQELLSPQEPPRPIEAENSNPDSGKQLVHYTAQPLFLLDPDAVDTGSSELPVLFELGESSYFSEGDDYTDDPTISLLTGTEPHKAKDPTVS
As to the kind of experiment: HSF1 potentiators in luciferase reporter cells, confirmation, cell-based, NIH3T3, luminescence, dose retest (AID 435004).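 Further: stress induced by proteasome inhibitor MG132 added 30 min after compound; luciferase reporter driven by HSF1 response element in NIH3T3 cells; actives raise luminescence as potentiators of the MG132 stress response.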 It is filed as functional. On the technique in general: A reporter such as luciferase makes a cellular process visible.

Active and inactive are the calls of the source. No stated cut-off is given here; in the data, actives have a measured EC50 and inactives only a lower limit.

Regarding `Cn1c(O)cc(=O)nc1SCC(=O)Nc1ccc(Cl)cc1`, the results for the EC50 in assay [1] and in assay [2] were > 150 µM (not active) and 29.9 µM (active), respectively.

As to `COc1ccc(C#Cc2ccc3c(=O)c4ccccc4n(C)c3c2)cc1`, the EC50 in assay [1] was 102 µM (active); in assay [2], 10.3 µM (active); in assay [3], 110 µM (active).

Turning to `Cc1ccc(NS(=O)(=O)c2ccc(C(=O)N3CC(C)OC(C)C3)cc2)cc1` (centres undefined), the EC50 in assay [4] is 8.95 µM (active).

Take `Cc1cnc(NC(=O)CSc2ncc(-c3ccccc3)n2Cc2ccco2)s1`: in assay [4], the EC50 was 5.51 µM (active).

With `Cc1cccc(CN2CCCC(C(=O)c3ccc4c5c(cccc35)CC4)C2)n1` (centres undefined), the EC50 was > 150 µM (not active) in assay [1], 15 µM (active) in assay [2] and > 150 µM (not active) in assay [3].

For the compound `Cc1ccc(C(=N)NOC(=O)N2CCOCC2)cc1`, the results for the EC50 in assay [5] and in assay [6] were > 60 µM (not active) and 1.95 µM (active), respectively.

As to `Cc1ccc2ccc(C(Nc3cccc(C(F)(F)F)c3)c3cccnc3)c(O)c2n1` (centres undefined), the figures for the EC50 in assay [1], in assay [2] and in assay [3] were 10.7 µM (active), 2.12 µM (active) and > 150 µM (not active), respectively.

As to `Clc1ccc(C2=NCCN2)cc1`, the EC50 was > 60 µM (not active) in assay [5] and 0.24 µM (active) in assay [6].

As for `Cc1ccc(C(=O)NC(=S)N(C)C2CCCCC2)cc1Br`, the EC50 was 6.98 µM (active) in assay [1], 2.54 µM (active) in assay [2], 8.13 µM (active) in assay [5] and 2.07 µM (active) in assay [6].

With `COc1ccc(-c2c[n+](-c3ccccc3)c3n2CCS3)cc1`, the EC50 in assay [5] was > 60 µM (not active); in assay [6], 0.688 µM (active).

In the case of `Fc1ccc(-c2cc(C(F)(F)C(F)F)[nH]n2)cc1`, the EC50 in assay [4] is 6.17 µM (active).

Consider `Cc1nc2c(C(=O)NCc3ccc4c(c3)OCO4)cnn2c(C)c1Cc1ccc(F)cc1Cl`, for which the values for the EC50 in assay [1], in assay [2] and in assay [3] were > 150 µM (not active), 9.62 µM (active) and 42.9 µM (active), respectively.

As to `CC12CC3(C)CC(C)(C1)CC(C(=O)NC1=NCCS1)(C2)C3`, the EC50 in assay [1] was > 150 µM (not active); in assay [2], 3.33 µM (active); in assay [3], > 150 µM (not active).

As to `Cc1ccc2nc(NCCC(=O)O)nc(-c3ccccc3)c2c1`, in assay [4], the EC50 was 5.3 µM (active).

Regarding `COc1cccc(C2CC(c3cccs3)=NN2C(=O)CSc2nc(O)c3cnn(-c4ccc(F)cc4)c3n2)c1OC` (centres undefined), the EC50 in assay [1] was 11.6 µM (active); in assay [2], 1.63 µM (active).

As for `CC(=O)Nc1ccc(NC(=O)CSc2nnc(NC(=O)c3ccc(Br)o3)s2)cc1`, the EC50 was 44 µM (active) in assay [1], 8.52 µM (active) in assay [2] and > 150 µM (not active) in assay [3].

Regarding `Cc1cc(Cl)ccc1OCc1nc(-c2ccncc2)no1`, the EC50 in assay [5] is > 60 µM (inconclusive); in assay [6], 2.43 µM (active).

As to `c1ccc2c(c1)nc(Nc1ccc(N3CCCCC3)cc1)c1nncn12`, the EC50 in assay [1] was 91.3 µM (active); in assay [2], 6.13 µM (active); in assay [3] it was > 150 µM (not active).

`O=C(CSc1nnc(-c2cccs2)o1)N1CCCc2ccccc21`: the EC50 in assay [7] is > 260 µM (inactive).

Consider `O=C1NC(=O)N(Cc2ccccc2)C(=O)/C1=C/NNC(=O)c1ccccc1`, for which the EC50 in assay [1] is 16.4 µM (active); in assay [2], 9.3 µM (active); in assay [3] it was > 150 µM (not active).

`CCOC(=O)CC(NC(=O)CCS(=O)(=O)c1ccc2c(c1)n(C)c(=O)c(=O)n2C)c1ccc(C)cc1` (centres undefined): the EC50 in assay [1], in assay [2] and in assay [3] was > 150 µM (not active) in each case.

Regarding `COc1ccc(OC)c(N/C(C)=C/C(=O)c2ccccc2)c1`, the EC50 in assay [5] is > 60 µM (not active); in assay [6], 2.49 µM (active).

As for `Cc1cccc(C)c1NC(=O)CN(C)CC(=O)Nc1sc2c(c1C(N)=O)CCC2`, the EC50 in assay [1], in assay [2] and in assay [3] was > 150 µM (not active) throughout.

Regarding `FC(F)(F)c1cccc(CNC2c3ccccc3-c3ccccc32)c1`, the EC50 in assay [1] is > 150 µM (not active); in assay [2], 22.8 µM (active); in assay [3] it was 19 µM (active).

Turning to `O=C(CSc1nc[nH]n1)c1cccc([N+](=O)[O-])c1`, the EC50 in assay [7] was > 260 µM (inactive).

Take `c1ccc(-c2nnc(-c3c[nH]c4ccccc34)nc2-c2ccccc2)cc1`: the EC50 was 68.7 µM (active) in assay [1], 14.7 µM (active) in assay [2] and 20.1 µM (active) in assay [3].

`CN(C)CCN(C(=O)c1ccc(S(=O)(=O)N(C)c2ccccc2)cc1)c1nc2cc3c(cc2s1)OCO3`: the results for the EC50 in assay [5] and in assay [6] were > 60 µM (not active) and 0.145 µM (active), respectively.

Regarding `OC1(C#Cc2c(-c3ccsc3)oc3ccc(N4CCOCC4)cc23)CCCCC1`, the EC50 in assay [1] is 15.3 µM (active); in assay [2], 6.92 µM (active); in assay [3], 54.6 µM (inconclusive).

As to `COc1ccc2[nH]c(CN3CCN(CCC(C)C)C(CCO)C3)c(C)c2c1` (centres undefined), the EC50 in assay [5] was > 60 µM (not active); in assay [6], 0.648 µM (active).

With `Cc1cc(C)cc(C(=O)NC2C(=O)N3C(C(=O)O)=C(CSc4nnc(C)s4)CSC23)c1` (centres undefined), the EC50 was 1.62 µM (active) in assay [1], 0.512 µM (active) in assay [2] and > 150 µM (not active) in assay [3].

For `COCCn1c(-c2cc(OC)c(OC)c(OC)c2)nc2oc3cc(OC)ccc3c(=O)c2c1=O`, the EC50 in assay [1], in assay [2] and in assay [3] was > 150 µM (not active) each time.

Take `FC(F)(F)c1cccc(Cn2nnnc2-c2cc(Cl)cc(Cl)c2)c1`: the EC50 in assay [7] is > 260 µM (inactive).

As to `C#CCN(N(C)c1ncc(C(F)(F)F)cc1Cl)S(=O)(=O)c1ccc2ccccc2c1`, in assay [4], the EC50 is > 53 µM (inactive).

For the compound `CCOP(=O)(C(NC(=O)c1ccccc1Cl)=C(Cl)Cl)c1ccccc1` (centres undefined), in assay [7], the EC50 is > 260 µM (inactive).

For `C/C(=N\NC(=S)Nc1ccc(C)cc1)c1cccc(N)c1`, in assay [4], the EC50 is > 53 µM (inactive).

Consider `Cc1cc(C)c(COc2ccc(/C=N/n3c(C)nnc3S)cc2)c(C)c1`, for which the EC50 was 12.2 µM (active) in assay [1], 4.01 µM (active) in assay [2] and 12 µM (active) in assay [3].

On to `CCOC(=O)c1csc(N/N=C2\CCCc3ccccc32)n1`, for which the EC50 in assay [1] was 16 µM (active); in assay [2] it was 9.3 µM (active); in assay [3], > 150 µM (not active).

For the compound `Cc1ccc(S(=O)(=O)NC(C(=O)O)c2ccccc2)cc1` (centres undefined), the EC50 in assay [4] was > 53 µM (inactive).
